# Like-named read-outs stand apart in the source and are kept apart here.
# How the values were obtained:
# adenosine A1 receptor = biological target: T1, adenosine A1 receptor (Rattus norvegicus, UniProt P25099); assay: biochemical; conditions: for inhibition at 10 µM: read-out: % displacement at 10^-5 M, A1
# T1 sequence (P25099 1-326): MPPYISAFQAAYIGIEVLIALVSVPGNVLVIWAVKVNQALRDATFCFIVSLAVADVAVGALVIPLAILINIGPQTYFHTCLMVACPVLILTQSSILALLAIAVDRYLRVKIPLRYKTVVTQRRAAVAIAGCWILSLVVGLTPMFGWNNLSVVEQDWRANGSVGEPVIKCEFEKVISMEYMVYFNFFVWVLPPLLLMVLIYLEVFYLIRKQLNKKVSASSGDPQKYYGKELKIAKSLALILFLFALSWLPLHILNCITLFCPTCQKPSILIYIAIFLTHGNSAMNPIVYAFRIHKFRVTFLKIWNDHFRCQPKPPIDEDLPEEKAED
# Method: (§1) Incubations were carried out for 1 hr at 37° C. and were terminated by rapid filtration over Whatman GF/B filters, using a Brandell cell harvester (Brandell, Gaithersburg, Md.). Tubes were washed three times with 3 ml of buffer. Radioactivity was determined in a Beckman 5500B γ-counter. Nonspecific binding was determined in the presence of 10^−5 M R-PIA.
# (§2) All compounds prepared were tested in radioligand binding assays to determine their affinities for the adenosine A1 receptor in rat brain cortex, the A2A receptor in rat striatum and the human A3 receptor as expressed in HEK 293 cells (Table 2, hereinafter). The Ki values were computed from the displacement curves obtained by nonlinear regression of the competition curves with the software package Prism (Graph Pad, San Diego, Calif.)
# (§3) For the adenosine A1 receptor, the tritiated antagonist, [^3H]-1,3-dipropyl-8-cyclopentylxanthine ([^3H]DPCPX), and for the adenosine A2A receptor, the tritiated antagonist [^3H]ZM 241385 were used. Since radiolabeled antagonists are not commercially available for the adenosine A3 receptor, [125I]AB-MECA, an A3 receptor agonist, was used. Displacement experiments were performed in the absence of GTP.
# [1] = biological target: human adenosine A2A receptors (Homo sapiens, UniProt P29274); conditions: for agonist behaviour (intrinsic activity) at the adenosine A2A receptor: cAMP production compared to reference agonist CGS 21680, words
# Method: CHO cells expressing the human adenosine A2A receptors were grown overnight as a monolayer in 24 wells tissue culture plates (400 μl/well; 2×10^5 cells/well). cAMP generation was performed in Dulbecco's Modified Eagles Medium (DMEM)/N-2-hydroxyethylpiperazin-N′-2-ethansulfonic acid HEPES) buffer (0.60 g HEPES/50 ml DMEM pH 7.4). To each well, washed three times with DMEM/HEPES buffer (250 μl), 100 μl DMEM/HEPES buffer, 100 μl adenosine deaminase (final concentration 5 IU/ml) and 100 μl of a mixture of rolipram and cilostamide (final concentration 50 μM each) were added. After incubation for 40 minutes at 37° C., 100 μL agonist was added. After 15 minutes at 37° C., the reaction was terminated by removing the medium and adding 200 μl 0.1 M HCl. Wells were stored at −20° C. until assay.
# The amounts of cAMP were determined after a protocol with cAMP binding protein^12 with the following minor modifications. As a buffer was used 150 mM K2HPO4/10 mM EDTA/0.2% Bovine Serum Albumine (BSA) at pH 7.5. Samples (20 μl+30 μl 0.1 M HCl) were incubated for at least 2.5 hours at 0° C. before filtration over Whatman GF/B filters. […] Filters were counted in Packard Emulsifier Safe scintillation fluid (3.5 ml) after 24 hours of extraction.
# All compounds prepared were also tested in a functional assay.
# human A3 receptor = biological target: T2, human A3 receptor (Homo sapiens, UniProt P0DMS8); assay: Radioligand binding, displacement of [125I]AB-MECA from human A3 receptor expressed in HEK 293 cells; conditions: for % displacement at 10^-5 M, A3: 10 μM, n=2, mean value
# T2 construct: expressed in transfected cells; host or cells: HEK 293
# T2 sequence (P0DMS8 1-318): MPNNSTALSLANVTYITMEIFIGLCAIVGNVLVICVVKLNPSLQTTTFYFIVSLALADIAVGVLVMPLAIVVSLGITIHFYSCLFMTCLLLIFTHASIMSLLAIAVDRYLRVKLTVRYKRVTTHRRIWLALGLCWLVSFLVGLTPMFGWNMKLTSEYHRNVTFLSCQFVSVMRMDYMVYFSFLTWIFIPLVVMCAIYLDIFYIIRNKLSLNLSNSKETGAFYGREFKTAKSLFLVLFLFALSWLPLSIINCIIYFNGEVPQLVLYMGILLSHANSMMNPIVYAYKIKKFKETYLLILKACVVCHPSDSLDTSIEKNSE
# Method: as §1, §2, §3
# adenosine A2A receptor = adenosine A2A receptor (Rattus norvegicus, UniProt P30543); assay: biochemical; conditions: for A3/A2A: ratio of Ki A3 (human) to Ki A2A (rat); for % displacement at 10^-5 M, A2A: [3H]ZM241385, rat striatal membranes, 10 μM, n=2, mean value
# Method: as §1, §2, §3
# [2] = [125I]AB-MECA, human A3 receptor in HEK 293 cells
SMILES,inhibition at 10 µM (adenosine A1 receptor),% cAMP production hA2A [1],agonist behaviour (intrinsic activity) at the adenosine A2A receptor [1],"Ki (human A3 receptor; [125I]AB-MECA, human A3 receptor in HEK 293 cells, ±SEM, n=3, read-out: Ki A3)",Ki (adenosine A2A receptor),A3/A2A (adenosine A2A receptor),Ki (human A3 receptor),"% displacement at 10^-5 M, A2A (adenosine A2A receptor)","% displacement at 10^-5 M, A3 (human A3 receptor; [2])",melting point,selectivity for the adenosine A2A receptor compared to A3 (adenosine A2A receptor; from Ki values),Ki (adenosine A1 receptor)
"Nc1nc(I)nc2c1ncn2[C@@H]1O[C@H](CO)[C@@H](O)[C@H]1O [Compound 1, 2-Iodoadenosine]",36.1%,126% (118–134),full agonist,,,,,,,,,
"CCCCC#Cc1nc(N)c2ncn([C@@H]3O[C@H](CO)[C@@H](O)[C@H]3O)c2n1 [Compound 3, 2-(1-hexynyl)adenosine]",,61% (58–64),partial agonism,16.9 ± 4.1 nM,,,,,,,,
"CCCC/C=C/c1nc(N)c2ncn([C@@H]3O[C@H](CO)[C@@H](O)[C@H]3O)c2n1 [Compound 4, 2-((E)-1-hexenyl)adenosine]",53.1%,82% (78–86),partial agonism,,26.2 ± 1.8 nM,2.78,73.5 ± 7.7 nM,,,,,
"Nc1nc(I)nc2c1nc(Br)n2[C@@H]1O[C@H](CO)[C@@H](O)[C@H]1O [Compound 5, 2-iodo-8-bromoadenosine]",21.6%,,,,,,,43.1%,6.2%,,,
"CNc1nc2c(N)nc(I)nc2n1[C@@H]1O[C@H](CO)[C@@H](O)[C@H]1O [Compound 7, 2-Iodo-8-methylaminoadenosine]",35.2%,23% (20–25),,,,,7310 ± 440 nM,43.3%,,162 to 164 °C,,
"CCNc1nc2c(N)nc(I)nc2n1[C@@H]1O[C@H](CO)[C@@H](O)[C@H]1O [Compound 8, 2-iodo-8-ethylaminoadenosine]",35.2%,77% (76–78),,,,,5110 ± 890 nM,40.6%,,205 to 207 °C,,
"CCCNc1nc2c(N)nc(I)nc2n1[C@@H]1O[C@H](CO)[C@@H](O)[C@H]1O [Compound 9, 2-Iodo-8-propylaminoadenosine]",40.2%,,,,,,8670 ± 2000 nM,50.7%,,160 to 162 °C,,
"CCCCNc1nc2c(N)nc(I)nc2n1[C@@H]1O[C@H](CO)[C@@H](O)[C@H]1O [Compound 10, 2-Iodo-8-butylaminoadenosine]",28.2%,28% (27–30),,,3110 ± 1650 nM,,,,43.1%,,,
"Nc1nc(I)nc2c1nc(NCc1ccccc1)n2[C@@H]1O[C@H](CO)[C@@H](O)[C@H]1O [Compound 11, 2-iodo-8-benzylaminoadenosine]",35.5%,125% (92–157),full agonists,,,,,44.7%,39.5%,,,
"CCCCC#Cc1nc(N)c2nc(NC)n([C@@H]3O[C@H](CO)[C@@H](O)[C@H]3O)c2n1 [Compound 12, 2-(1-Hexynyl)-8-methylaminoadenosine]",31.6%,85% (85–86),,,115 nM,49.0,5640 ± 780 nM,,,,,
"CCCCC#Cc1nc(N)c2nc(NCC)n([C@@H]3O[C@H](CO)[C@@H](O)[C@H]3O)c2n1 [Compound 13, 2-(1-hexynyl)-8-ethylaminoadenosine]",30.9%,134% (124–143),full agonist,,253 ± 29 nM,34.9,8830 ± 1230 nM,,,,,
"CCCCC#Cc1nc(N)c2nc(NCCC)n([C@@H]3O[C@H](CO)[C@@H](O)[C@H]3O)c2n1 [Compound 14, 2-(1-Hexynyl)-8-propylaminoadenosine]",47.6%,58% (50–66),,,82 nM,26.3,2160 ± 120 nM,,,184 to 186 °C,~26 fold,
"CCCCC#Cc1nc(N)c2nc(NCCCC)n([C@@H]3O[C@H](CO)[C@@H](O)[C@H]3O)c2n1 [Compound 15, 2-(1-hexynyl)-8-butylaminoadenosine]",,72% (63–82),,,149 ± 29 nM,,,,64.3%,182 to 184 °C,,539 ± 380 nM
"CCCCC#Cc1nc(N)c2nc(NCc3ccccc3)n([C@@H]3O[C@H](CO)[C@@H](O)[C@H]3O)c2n1 [Compound 16, 2-(1-hexynyl)-8-Benzylaminoadenosine]",,83% (61–106),full agonists,,,,7970 ± 610 nM,35.4%,,141 to 143 °C,,756 ± 483 nM
"CCCC/C=C/c1nc(N)c2nc(NC)n([C@@H]3O[C@H](CO)[C@@H](O)[C@H]3O)c2n1 [Compound 17, 2-((E)-1-Hexenyl)-8-methylaminoadenosine]",17.9%,54% (49–59),,,663 ± 106 nM,20.3,13400 ± 2130 nM,,,161 to 166 °C,,
"CCCC/C=C/c1nc(N)c2nc(NCC)n([C@@H]3O[C@H](CO)[C@@H](O)[C@H]3O)c2n1 [Compound 18, 2-((E)-1-hexenyl)-8-ethylaminoadenosine]",30%,65% (63–66),,,1840 ± 300 nM,9.53,17500 ± 2100 nM,,,128 to 130 °C,,
"CCCC/C=C/c1nc(N)c2nc(NCCC)n([C@@H]3O[C@H](CO)[C@@H](O)[C@H]3O)c2n1 [Compound 19, 2-((E)-1-hexenyl)-8-propylaminoadenosine]",49.5%,73% (70–76),,,678 ± 25 nM,21.1,14300 ± 2160 nM,,,170 to 172 °C,,
"CCCC/C=C/c1nc(N)c2nc(NCCCC)n([C@@H]3O[C@H](CO)[C@@H](O)[C@H]3O)c2n1 [Compound 20, 2-((E)-1-hexenyl)-8-butylaminoadenosine]",,36% (33–40),,,580 ± 250 nM,,,,47.4%,,,906 ± 264 nM
"CCCCC#Cc1nc(N)c2nc(C#CCCCC)n([C@@H]3O[C@H](CO)[C@@H](O)[C@H]3O)c2n1 [Compound 22, 2,8-di-(1-hexynyl)adenosine]",50.3%,99% (98–99),full agonists,,,,254 ± 34 nM,28.7%,,,,
"Nc1nc(NCc2ccccc2)nc2c1nc(NCc1ccccc1)n2[C@@H]1O[C@H](CO)[C@@H](O)[C@H]1O [Compound 23, 2,8-di-benzylaminoadenosine]",50.2%,95% (90–100),full agonists,,,,,11.6%,54.1%,,,
